Assay results: PMC12627232 (MedComm, 2025)

How the values were obtained:
[1] = test system: B16F10 syngeneic model; experiment: B16F10 syngeneic model; format: in vivo; settings: C57BL/6J mice, HDAC inhibitors by oral gavage, anti-PD-L1 intraperitoneal, 7-day treatment
Procedure: With the approval of the ethics committee of Shandong University, C57BL/6J mice were purchased from Charles River and fed in SPF conditions at the Model Animal Research Centre of Shandong University. To establish the B16F10 syngeneic model, cells in logarithmic growth phase were trypsinized with 0.25% trypsin, resuspended in sterile PBS, and adjusted to 1 × 10^6 cells/100 µL. The cell suspension (100 µL) was subcutaneously injected into the left axilla. When tumors reached to certain volume, mice were randomized (n = 5/group) and treated with Chidamide, LBH‐589, or SDFZ‐8 by oral gavage and intraperitoneal injection of anti‐PD‐L1. Tumor growth curves were plotted over a 7‐day treatment cycle. All procedures complied with AAALAC International guidelines for humane endpoint criteria.

[2] = test system: MDA-MB-231 xenograft; experiment: MDA-MB-231 xenograft model; format: in vivo, BALB/c-nu mice; settings: MDA-MB-231 xenograft, BALB/c-nu mice, 60 mg/kg/day oral gavage, 22 days
Procedure: BALB/c‐nu mice were obtained from Pengyue Co. Ltd. (Jinan, China) and were fed in laminar flow cabinets under specific pathogen‐free (SPF) conditions. With the approval of ethics committee of Shandong University, the animal experiments were conducted. To establish the MDA‐MB‐231 xenograft model, BALB/c‐nu mice (3–4 weeks old and 15–18 g body weight, male) were selected and injected subcutaneously into the armpits with 1.2 × 10^7 MDA‐MB‐231 cells. […] Body weight and tumor size were measured every 3 days during the 22‐day treatment.

[3] = test system: MDA-MB-231 cells; experiment: Western blotting (immunoblotting); format: cell-based, human; settings: 24 h, western blotting
Description: Anti‐H3 (#13998), anticleaved Caspase‐3 (#9661) and anti‐PARP (#9542) antibody was purchased from Cell Signal Technology (CST). Anti‐Caspase‐3 (T40044) was brought from Abmart. Antitubulin antibody (ab179484) was obtained from Abcam PLC. Anti‐Bcl‐2 (F0125) and anti‐Bax (F0037) antibody were purchased from Selleck Chemicals. Anti‐GAPDH antibody (AF1186) was obtained from Beyotime Inc. The protocol of Western blotting was the same as our previous works. In brief, 2.5 × 10^5 MDA‐MB‐231 cells were treated with different drugs or DMSO (equal volume to experimental groups) for 24 h and lysed with modified RIPA buffer. The cell lysates were added to loading buffer (Beyotime #P0015L) and heated in boiling water for 5 mins and then, together with biomarker (Epizymebiotech; 15–250 kDa), were electrophoresed in SDS‐PAGE gels under 80 V voltage until the biomarker reached the end of gels. Next, SDS‐PAGE gels and PVDF membrane were clipped together to perform transmembrane procedure under 350 mA currency for 1 h. Then after incubation with 5% skim milk, TBST, primary antibody and secondary antibody, the PVDF membrane was treated with ECL chemiluminescence solution (Boster Biological Technology #AR1174) and imaged by the imager (Imager 680 Amersham Imager).

[4] = test system: HDAC3/NCOR1 complex; experiment: HDACs enzymatic assay HDAC3; format: biochemical; settings: Class I; mean ± SD of three
Procedure: HDACs enzymatic assays were conducted according to our previous work. […] Substrates (Boc‐Lys(acetyl)‐AMC for HeLa nuclear extract, Ac‐Leu‐Gly‐Lys (Tfa)‐AMC for HDAC4, HDAC5, HDAC6, HDAC7, HDAC9, HDAC10, and HDAC11, Boc‐Lys(triflouroacetyl)‐AMC for HDAC8 and Ac‐Leu‐Gly‐Lys(acetyl)‐AMC for HDAC1, HDAC2, HDAC3) were added to the mixture. The blank group was set to no enzyme or drug but contains substrates and the control group was set to no drug but contains substrates and enzymes to each 96‐well plate. After 30 min of incubation at 37°C, the mixture was terminated with 1 mg/mL trypsin and 3 µM TSA. After another 30 min, the fluorescence intensity was measured using a Varioskan plate reader at 360/460 nm. […] The inhibition curves and IC50 values were simulated and calculated using the log(inhibitor) versus response (three parameters) mode in GraphPad Prism software.

[5] = test system: MC38 syngeneic model; experiment: MC38 syngeneic model; format: in vivo; settings: C57BL/6J mice, SDFZ-8 60 mg/kg qd i.g., 14-day treatment
Procedure: C57BL/6J mice were obtained from HFK Bioscience (Beijing, China) and fed in laminar flow cabinets under SPF conditions. With the approval of the ethics committee of Shandong University, the animal experiments were conducted. […]. By the time tumors reached certain volumes, SDFZ‐8 treatment (SDFZ‐8 in PBS solution containing 5% DMSO, 60 mg/kg, qd, i.g.) was started, with five animals per treatment group. Body weight and tumor size were measured every day during the 14‐day treatment.

[6] = test system: immune cells of MC38 syngeneic model; experiment: Flow cytometry of tumor-infiltrating and spleen immune cells, MC38 model; format: in vivo, C57BL/6J mice
Procedure: After 14 days, the tumors and spleens were split, and cells were isolated to analyze the change in cancer immunity. For TILs, the tumors were incubated with the tumor digestion fluid (collagenase and hyaluronic acid included) and then filtered with a 200‐gauge mesh and centrifuged (100×g, 1 min). The supernatant was centrifuged (400×g, 5 min) and precipitated cells were purified by 40% percoll solution followed by RBC lysis and washing. For splenocytes, the spleen was passed through a 200‐gauge mesh, and splenocytes were collected after RBC lysis and washing.
The prepared cell suspensions were incubated with rat serum at room temperature for 30 min to block the FC‐receptor and incubated with fluorescent antibodies at 4°C for 1 h. For Foxp3 staining, Foxp3/Transcription Factor Staining Buffer Set (eBioscience; #00‐5523‐00) was used. For intracellular cytokines staining, cells were pre‐stimulated with 1 µg/mL ionomycin (Beyotime; #S1672), 50 ng/mL PMA (Sigma; #P1585) and Brefeldin A (BioLegend; #420601) for 4 h. Flow cytometry was conducted with FACS Celesta (BD Biosciences, USA) and analyzed with FlowJo software.

Compound `Nc1cc(F)ccc1NC(=O)c1ccc(CNC(=O)/C=C/c2cccnc2)cc1` [Chidamide, reference compound] has a TGI [1] of 58%.

Work on `Cc1[nH]c2ccccc2c1CCNCc1ccc(/C=C/C(=O)NO)cc1` [LBH-589, reference compound] yielded a TGI [1] of 53%.

With `O=C(CCCCCCC(=O)Nc1ccccc1)NO` [SAHA, Vorinostat, reference compound] the TGI [2] was 60%, the “level of acetylated histone H3 (Ac-H3)” value [3] was “upregulation” and the “level of acetylated tubulin (Ac-tubulin)” value [3] was “upregulation”. For the same compound, the IC50 [4] was 45 ± 20 nM, the TGI [5] was 50% and the “PD-L1 and PD-1 expression in tumor-infiltrating immune cells” value [6] was “upregulated”. For the same compound, the “surface expression of MHC class II in DCs and macrophages” value [6] was “only impacted MHC II in DCs”, the “M2 polarization of TAMs” value ([6]; CD206 marker) was “suppressed” and the “M1 polarization of TAMs” value ([6]; iNOS marker) was “robustly promoted”. The “PD-1 expression in spleen CD4+ T cells and NK cells” value ([6]; spleen) was “downregulated”, the “PD-L1 expression in spleen DCs and macrophages” value ([6]; spleen) was “upregulated” and the “proportion of CD4+ T cells, CD8+ T cells and NK cells in the spleen” value ([6]; spleen) was “did not induce such effects”. For the same compound, the “expression of IFN-γ and TNF-α in CD4+ T cells and CD8+ T cells” value ([6]; tumor) was “upregulation”.

In the case of atezolizumab [anti-PD-L1], the TGI [1] is reported as 62%.
